Assay results reported in the NIST ThermoML archive (doi:10.1016/j.jct.2017.05.022).
Numbers after ± are expanded uncertainties.

Legend:
[1] = Molar enthalpy of transition or fusion; conditions: Crystal; DSC
[2] = for specific volume / mass density: 101.33 kPa; for specific volume: X-ray diffraction; for mass density: Liquid, Vibrating tube method
[3] = Solid-liquid equilibrium temperature; conditions: Crystal, DTA

For O=C(OCCN1CCOCC1)c1cccnc1Nc1cccc(C(F)(F)F)c1, the “Molar enthalpy of transition or fusion” value [1] was 8.45 ± 0.359 kcal/mol, the specific volume ([2]; 100 K, Crystal) was 0.0006857 ± 1e-06 m3/kg and the specific volume ([2]; 125 K, Crystal) was 0.0006872 ± 1e-06 m3/kg. It also gave a specific volume ([2]; 150 K, Crystal) of 0.0006912 ± 1.1e-06 m3/kg, a specific volume ([2]; 175 K, Crystal) of 0.000693 ± 1.1e-06 m3/kg and a specific volume ([2]; 200 K, Crystal) of 0.0006968 ± 1.1e-06 m3/kg. The specific volume ([2]; 225 K, Crystal) was 0.0006995 ± 1.1e-06 m3/kg, the specific volume ([2]; 250 K, Crystal) was 0.0007035 ± 1.1e-06 m3/kg and the specific volume ([2]; 273 K, Crystal) was 0.0007063 ± 1.1e-06 m3/kg. The specific volume ([2]; 298.2 K, Crystal) was 0.0007115 ± 1.1e-06 m3/kg, the specific volume ([2]; 315 K, Crystal) was 0.0007135 ± 1.1e-06 m3/kg and the specific volume ([2]; 320 K, Crystal) was 0.0007145 ± 1.1e-06 m3/kg. For the same compound, the mass density ([2]; 323.15 K) was 1262.9 ± 0.5 kg/m3, the specific volume ([2]; 325 K, Crystal) was 0.0007147 ± 1.1e-06 m3/kg and the mass density ([2]; 325.65 K) was 1260.6 ± 0.5 kg/m3. It also gave a mass density ([2]; 328.15 K) of 1258.4 ± 0.5 kg/m3, a specific volume ([2]; 330 K, Crystal) of 0.0007156 ± 1.1e-06 m3/kg and a mass density ([2]; 330.65 K) of 1256.2 ± 0.5 kg/m3. For the same compound, the specific volume ([2]; 332 K, Crystal) was 0.0007166 ± 1.1e-06 m3/kg, the mass density ([2]; 333.15 K) was 1254 ± 0.5 kg/m3 and the specific volume ([2]; 335 K, Crystal) was 0.0007171 ± 1.1e-06 m3/kg. For the same compound, the mass density ([2]; 335.15 K) was 1252.2 ± 0.5 kg/m3, the specific volume ([2]; 337 K, Crystal) was 0.0007171 ± 1.1e-06 m3/kg and the mass density ([2]; 337.65 K) was 1249.9 ± 0.5 kg/m3. For the same compound, the specific volume ([2]; 340 K, Crystal) was 0.0007177 ± 1.1e-06 m3/kg, the mass density ([2]; 340.15 K) was 1247.7 ± 0.5 kg/m3 and the specific volume ([2]; 342 K, Crystal) was 0.0007184 ± 1.1e-06 m3/kg. For the same compound, the mass density ([2]; 342.65 K) was 1245.4 ± 0.5 kg/m3, the mass density ([2]; 345.15 K) was 1243.2 ± 0.4 kg/m3 and the specific volume ([2]; 347 K, Crystal) was 0.0007192 ± 1.1e-06 m3/kg. The mass density ([2]; 347.65 K) was 1240.9 ± 0.4 kg/m3, the mass density ([2]; 350.15 K) was 1238.7 ± 0.4 kg/m3 and the mass density ([2]; 352.65 K) was 1236.4 ± 0.4 kg/m3. The mass density ([2]; 355.16 K) was 1234.2 ± 0.4 kg/m3, the mass density ([2]; 357.65 K) was 1231.9 ± 0.4 kg/m3 and the mass density ([2]; 360.15 K) was 1229.7 ± 0.4 kg/m3. The mass density ([2]; 362.65 K) was 1227.4 ± 0.4 kg/m3, the Normal melting temperature ([2]; Crystal, DTA) was 75.0 ± 0.9 °C and the Glass transition temperature ([2]; Glass, DSC) was -23.7 ± 1.2 °C. For the same compound, the Solid-liquid equilibrium temperature ([3]; 100 kPa) was 348.1 ± 0.8 K, the Solid-liquid equilibrium temperature ([3]; 32000 kPa) was 358.5 ± 3.1 K and the Solid-liquid equilibrium temperature ([3]; 58000 kPa) was 366.9 ± 3.1 K. For the same compound, the Solid-liquid equilibrium temperature ([3]; 79000 kPa) was 374.5 ± 3.1 K, the Solid-liquid equilibrium temperature ([3]; 115000 kPa) was 382.7 ± 3.1 K and the Solid-liquid equilibrium temperature ([3]; 140000 kPa) was 390.7 ± 3.1 K. The Solid-liquid equilibrium temperature ([3]; 155000 kPa) was 396 ± 3.1 K, the Solid-liquid equilibrium temperature ([3]; 201000 kPa) was 403.7 ± 3.1 K and the Solid-liquid equilibrium temperature ([3]; 244000 kPa) was 421.5 ± 3.1 K.
